Legend:
tubulin colchicine site = tubulin colchicine site (Bos taurus, UniProt P81947+Q6B856); experiment: Inhibition of [3H]colchicine binding to tubulin; settings: read-out: inhibition of colchicine binding % inhibition ± SD
Experimental: Reaction mixtures in the assembly assay contained 9 μM (0.9 mg/mL) tubulin in the assembly assay, and in the colchicine assay they contained 0.5 μM tubulin, 5.0 μM [^3H]colchicine, and 5.0 μM inhibitor.
Analysis of effects on tubulin polymerization was performed by turbidimetry at 350 nm in recording spectrophotometers equipped with electronic temperature controllers as described in detail elsewhere.[71] […] The binding of [^3H]colchicine to tubulin was perfomed as described in detail previously[72] except that the tubulin concentration was reduced from 0.1 mg/mL to 0.05 mg/mL and only one, instead of two, DEAE-cellulose filter was used for each reaction mixture.

HBL1 (ABC DLBCL) = experiment: MTT cell proliferation, lymphoma; assay type: cell-based; settings: Homo sapiens, 72 h; for activity at 1 µM: of untreated cells, read-out: Proliferating cells (%); for IC50: MTT
Experimental: (§1) All compounds were further tested at the concentration of 1 μM on four cell lines derived from distinct lymphoma histotypes, plus two with secondary resistance to the PI3Kδ inhibitor idelalisib[51] or to the BTK inhibitor ibrutinib.[52] […] For comparison, the same experiments were conducted using compound 3, but the response to it was minimal, and thus it was not considered further.
(§2) Established human cell lines derived from germinal center B-cell (GCB) (SU-DHL-10), activated B-cell (ABC) (HBL1) diffuse large B-cell lymphoma (DLBCL), mantle cell lymphoma (MCL) (MINO), splenic marginal zone lymphoma (SMZL) (parental VL51, VL51 idelalisib resistant clone, VL51 ibrutinib resistant clone) were cultured in culture RPMI-1640 media supplemented with fetal bovine serum (10%), penicillin–streptomycin–neomycin (∼5,000 units of penicillin, 5 mg of streptomycinm and 10 mg of neomycin/mL, Sigma), and L-glutamine (1%). Vincristine sulfate was purchased from Sigma-Aldrich. Cell line identities were confirmed by CellCheck test (IDEXX, BioResearch, Ludwigsburg, Germany). All compounds were dissolved in dimethyl sulfoxide to obtain a stock concentration of 10 mM.
(§3) The antiproliferative activity of all compounds was assessed by using the 3-(4.5-dimethylthiazolyl-2)-2,5-diphenyltetrazolium bromide (MTT) test. Cells were seeded in 96-well plates (nontissue culture treated) at a density of 1 × 10^5 cells/mL and treated with a single concentration of 1 μM for 72 h. […] In this case, cells were treated in triplicate with serially diluted compounds in the appropriate tissue culture medium at a range of 40–10 000 nM. Cells were incubated for 72 h at 37 °C, 5% CO2. Wells containing medium only were included on each plate and served as blanks for absorbance readings. MTT (Sigma, Buchs, Switzerland) was prepared as a 5 mg/mL stock solution in phosphate buffered saline (PBS) and filter-sterilized. MTT solution (22 μL) was added to each well, and tissue culture plates were incubated at 37 °C for 4 h. Cells were then lysed with 25% sodium dodecyl sulfate lysis buffer, and absorbance was read at 570 nm using a Beckman Coulter-AD340 plate reader.

MINO (MCL) = experiment: MTT cell proliferation, lymphoma; assay type: cell-based; settings: Homo sapiens, 72 h; for activity at 1 µM: of untreated cells, read-out: Proliferating cells (%); for IC50: MTT
Experimental: as §1, §2, §3

SU-DHL-10 (GCB DLBCL) = experiment: MTT cell proliferation, lymphoma; assay type: cell-based; settings: Homo sapiens, SU-DHL10, 72 h; for activity at 1 µM: of untreated cells, read-out: Proliferating cells (%); for IC50: MTT
Experimental: as §1, §2, §3

VL51 (MZL) = experiment: MTT cell proliferation, lymphoma; assay type: cell-based; settings: Homo sapiens, 72 h; for activity at 1 µM: of untreated cells, read-out: Proliferating cells (%); for IC50: MTT
Experimental: as §1, §2, §3

VL51 ibrutinib-resistant = experiment: MTT cell proliferation, lymphoma; assay type: cell-based; settings: Homo sapiens, 72 h, of untreated cells, read-out: Proliferating cells (%)
Experimental: as §1, §2, §3

[1] = test system: VL51 idelalisib-resistant; experiment: MTT cell proliferation, lymphoma; assay type: cell-based; settings: Homo sapiens, 72 h, of untreated cells, read-out: Proliferating cells (%)
Experimental: as §1, §2, §3

six lymphoma cell lines = experiment: MTT cell proliferation, all lymphoma cell lines; assay type: cell-based, human; settings: 1 μM, 72 h, of the untreated cells
Experimental: as §1
as §2, with “Cell line identities were confirmed by CellCheck test (IDEXX, BioResearch, Ludwigsburg, Germany). All compounds were dissolved in dimethyl sulfoxide to obtain a stock concentration of 10 mM.” left out
The antiproliferative activity of all compounds was assessed by using the 3-(4.5-dimethylthiazolyl-2)-2,5-diphenyltetrazolium bromide (MTT) test. […] Wells containing medium only were included on each plate and served as blanks for absorbance readings. […] Cells were then lysed with 25% sodium dodecyl sulfate lysis buffer, and absorbance was read at 570 nm using a Beckman Coulter-AD340 plate reader.

bovine brain tubulin = bovine brain tubulin (Bos taurus, UniProt P81947+Q6B856); experiment: Inhibition of tubulin assembly (turbidimetry); assay type: biochemical; settings: 9 μM (0.9 mg/mL) tubulin, 20 min at 30 °C; read-out: inhibition of tubulin assembly IC50 ± SD
bovine brain tubulin, sequence (Q6B856 whole entry): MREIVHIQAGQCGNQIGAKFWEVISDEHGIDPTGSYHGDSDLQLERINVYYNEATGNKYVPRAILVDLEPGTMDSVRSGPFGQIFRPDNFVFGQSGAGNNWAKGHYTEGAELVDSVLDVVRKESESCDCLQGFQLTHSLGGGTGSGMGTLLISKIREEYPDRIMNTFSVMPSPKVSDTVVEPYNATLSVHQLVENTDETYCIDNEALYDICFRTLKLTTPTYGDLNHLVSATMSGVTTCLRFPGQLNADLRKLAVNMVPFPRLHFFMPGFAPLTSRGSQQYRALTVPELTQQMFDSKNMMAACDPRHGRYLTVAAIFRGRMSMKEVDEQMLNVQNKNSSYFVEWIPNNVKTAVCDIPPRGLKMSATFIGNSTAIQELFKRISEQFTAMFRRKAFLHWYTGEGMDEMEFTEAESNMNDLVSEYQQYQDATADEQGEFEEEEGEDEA
bovine brain tubulin, sequence (P81947 whole entry): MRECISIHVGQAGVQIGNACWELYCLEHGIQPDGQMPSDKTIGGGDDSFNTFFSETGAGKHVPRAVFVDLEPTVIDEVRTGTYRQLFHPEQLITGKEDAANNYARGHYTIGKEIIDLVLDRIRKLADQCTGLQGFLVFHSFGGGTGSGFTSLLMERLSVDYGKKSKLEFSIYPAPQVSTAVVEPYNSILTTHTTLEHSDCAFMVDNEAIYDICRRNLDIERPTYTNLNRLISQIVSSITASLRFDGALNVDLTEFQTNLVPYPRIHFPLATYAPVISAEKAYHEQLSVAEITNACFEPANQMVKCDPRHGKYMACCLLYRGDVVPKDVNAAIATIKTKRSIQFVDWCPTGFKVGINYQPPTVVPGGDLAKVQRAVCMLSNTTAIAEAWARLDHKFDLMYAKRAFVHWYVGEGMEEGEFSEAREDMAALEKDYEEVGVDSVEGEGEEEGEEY

[2] = test system: NCI-60 panel of human cancer cell lines; parameters: method as in earlier work; settings: full NCI panel, ref 42−45, cited from earlier work
tumor growth = test system: tumor growth; parameters: method as in PMID 17915194, PMID 21215627; settings: in vivo models, dose of 50–100 mg/kg; cited from earlier work
[3] = test system: human peripheral blood lymphocytes not stimulated with PHA; experiment: Cytotoxicity in resting PBLs (MTT); assay type: cell-based; settings: Lymphocyte, 72 h, mean ± SEM, three experiments, read-out: GI50 PBLresting
Experimental: (§4) PBLs were obtained from human peripheral blood (leucocyte rich plasma-buffy coats) from healthy volunteers using the Lymphoprep (Fresenius KABI Norge AS) gradient density centrifugation.
(§5) After extensive washing, cells were resuspended (1.0 × 10^6 cells/mL) in RPMI-1640 with 10% fetal bovine serum and incubated overnight. For cytotoxicity evaluations in proliferating PBL cultures, nonadherent cells were resuspended at 5 × 10^5 cells/mL in growth medium, containing 2.5 μg/mL PHA (Irvine Scientific). Different concentrations of the test compounds were added, and viability was determined 72 h later by the MTT test. For cytotoxicity evaluations in resting PBL cultures, nonadherent cells were resuspended (5 × 10^5 cells/mL) and treated for 72 h with the test compounds.

[4] = test system: human peripheral blood lymphocytes stimulated with PHA; experiment: Cytotoxicity in PHA-stimulated PBLs (MTT); assay type: cell-based; settings: Lymphocyte, 72 h, mean ± SEM, three experiments, read-out: GI50 PBLPHA
Experimental: as §4, §5

tubulin colchicine site, sequence (Q6B856 whole entry): as the sequence (Q6B856 whole entry) above
tubulin colchicine site, sequence (P81947 whole entry): as the sequence (P81947 whole entry) above

SMILES | inhibition at 5 µM (tubulin colchicine site) | activity at 1 µM (HBL1 (ABC DLBCL)) | activity at 1 µM (MINO (MCL)) | activity at 1 µM (SU-DHL-10 (GCB DLBCL)) | activity at 1 µM (VL51 (MZL)) | activity at 1 µM (VL51 ibrutinib-resistant) | activity at 1 µM [1] | percentage of proliferating cells, all tested cell lines (six lymphoma cell lines) | IC50 (bovine brain tubulin) | MG_MID (mean graph midpoint) [2] | GI50 ([2]; read-out: GI50 range) | IC50 (HBL1 (ABC DLBCL)) | IC50 (MINO (MCL)) | IC50 (SU-DHL-10 (GCB DLBCL)) | IC50 (VL51 (MZL)) | reduction of tumor growth (tumor growth) | GI50 [3] | GI50 [4]
COc1ccc(/C=C\c2cc(OC)c(OC)c(OC)c2)cc1O [CA-4, combretastatin A-4, reference compound] | 97 ± 0.9% | – | – | – | – | – | – | – | – | – | – | – | – | – | – | – | – | –
CCOC(=O)c1cc2c(n1Cc1cc(OC)cc(OC)c1)-c1oncc1CC2 [Compound 3, ethyl 8-(3,5-dimethoxybenzyl)-5,8-dihydro-4H-[1,2]oxazolo[4,5-g]indole-7-carboxylate, reference compound] | – | 95.6% | 94.5% | 80% | 93.5% | 123% | 107% | minimal | 9200 ± 400 nM | 0.25 µM | 30 to 31100 nM | – | – | – | – | – | – | –
COc1ccc(Cn2ccc3c2-c2oncc2CCC3)cc1 [Compound 56, 9-(4-Methoxybenzyl)-4,5,6,9-tetrahydropyrrolo[2′,3′:3,4]cyclohepta[1,2-d][1,2]oxazole] | – | 123% | 109% | 74.6% | 110% | 110% | 127% | – | 8200 ± 500 nM | – | – | – | – | – | – | – | – | –
COc1ccc(OC)c(Cn2ccc3c2-c2oncc2CCC3)c1 [Compound 57, 9-(2,5-Dimethoxybenzyl)-4,5,6,9-tetrahydropyrrolo[2′,3′:3,4]cyclohepta[1,2-d][1,2]oxazole] | 38 ± 0.7% | 29.6% | 8.5% | 11% | 36.5% | 37% | 34.3% | – | 3200 ± 60 nM | – | – | 600 nM | 400 nM | 300 nM | 200 nM | – | – | –
COc1cc(Cn2ccc3c2-c2oncc2CCC3)cc(OC)c1 [Compound 58, 9-(3,5-Dimethoxybenzyl)-4,5,6,9-tetrahydropyrrolo[2′,3′:3,4]cyclohepta[1,2-d][1,2]oxazole] | 25 ± 3% | 114% | 101% | 72.4% | 84% | 73% | 78.4% | – | 5700 ± 1000 nM | – | – | – | – | – | – | – | – | –
COC(=O)c1cc2c(n1Cc1ccccc1)-c1oncc1CCC2 [Compound 68, Methyl 9-Benzyl-4,5,6,9-tetrahydropyrrolo[2′,3′:3,4]cyclohepta[1,2-d][1,2]oxazole-8-carboxylate] | – | 109% | 98.8% | 78.9% | 94.5% | 120% | 123% | – | – | – | – | – | – | – | – | – | – | –
CCOC(=O)c1c(Cl)c2c(n1C)-c1oncc1CCC2 [Compound 69, Ethyl 7-Chloro-9-methyl-4,5,6,9-tetrahydropyrrolo[2′,3′:3,4]cyclohepta[1,2-d][1,2]oxazole-8-carboxylate] | – | 103% | 116% | 78.5% | 93.8% | 110% | 121% | – | – | – | – | – | – | – | – | – | – | –
CCOC(=O)c1c(Cl)c2c(n1Cc1ccccc1OC)-c1oncc1CCC2 [Compound 71, Ethyl 7-Chloro-9-(2-methoxybenzyl)-4,5,6,9-tetrahydropyrrolo[2′,3′:3,4]cyclohepta[1,2-d][1,2]oxazole-8-carboxylate] | – | 97% | 55.9% | 58.2% | 58.8% | 56.2% | 52.2% | – | – | – | – | > 5000 nM | 3400 nM | 2200 nM | 2400 nM | – | – | –
CCOC(=O)c1c(Cl)c2c(n1Cc1cccc(OC)c1)-c1oncc1CCC2 [Compound 72, Ethyl 7-Chloro-9-(3-methoxybenzyl)-4,5,6,9-tetrahydropyrrolo[2′,3′:3,4]cyclohepta[1,2-d][1,2]oxazole-8-carboxylate] | – | 105% | 110% | 76.9% | 107% | 103% | 128% | – | – | – | – | – | – | – | – | – | – | –
CCOC(=O)c1c(Cl)c2c(n1Cc1ccc(OC)cc1)-c1oncc1CCC2 [Compound 73, Ethyl 7-Chloro-9-(4-methoxybenzyl)-4,5,6,9-tetrahydropyrrolo[2′,3′:3,4]cyclohepta[1,2-d][1,2]oxazole-8-carboxylate] | – | 107% | 99.5% | 87.4% | 113% | 102% | 126% | – | – | – | – | – | – | – | – | – | – | –
CCOC(=O)c1c(Cl)c2c(n1Cc1cc(OC)ccc1OC)-c1oncc1CCC2 [Compound 74, Ethyl 7-Chloro-9-(2,5-dimethoxybenzyl)-4,5,6,9-tetrahydropyrrolo[2′,3′:3,4]cyclohepta[1,2-d][1,2]oxazole-8-carboxylate] | – | 29% | 9.8% | 13.3% | 40.4% | 44.4% | 37.7% | – | – | – | – | 1000 nM | 800 nM | 700 nM | 500 nM | – | – | –
CCc1cc(-c2oncc2-c2ccc(OC)cc2)c(O)cc1OC [KRIBB3] | – | – | – | – | – | – | – | – | – | – | – | – | – | – | – | 50–70% | – | –
CC[C@]1(O)C[C@H]2CN(CCc3c([nH]c4ccccc34)[C@@](C(=O)OC)(c3cc4c(cc3OC)N(C=O)[C@H]3[C@@](O)(C(=O)OC)[C@H](OC(C)=O)[C@]5(CC)C=CCN6CC[C@]43[C@@H]65)C2)C1 [vincristine, reference compound] | – | – | – | – | – | – | – | – | – | – | – | – | – | – | – | – | 7500 ± 3100 nM | 1200 ± 600 nM
